The values that follow come from patent publication US10071981B2, “Method of priming plants against abiotic stress factors” (Research Foundation of The City University of New York, priority 2014, dated 2018).

Common to all, as to type: in vivo
Experiment [1] has as its system Medicago truncatula plants. In words: Hydrogen peroxide content in leaves of drought-stressed plants. The conditions noted are these: 100 μM foliar spraying. The procedure: Mature (40 d) Medicago truncatula ecotype Jemalong A17 plants were used for the purposes of this study. These were grown in soil medium under controlled, optimal growth conditions and were then subjected to drought stress. Drought was imposed by withholding watering for 9 d (for detailed growth and stress conditions see Filippou et al., 2011). Both NOSH and NOSH-aspirin were applied at 100 μM concentration by foliar spraying at the start of stress imposition. The hybrid donors were diluted in 70% (v/v) and 30% (v/v) methanol, 20% (v/v) acetone or 20% (v/v) DMSO. Cellular damage was evaluated by lipid peroxidation levels (TBARS content) and hydrogen peroxide (H2O2) content as previously described (Filippou et al., 2011; Tanou et al., 2012), while osmoprotective capacity was evaluated by proline content (ninhydrin assay) as previously described (Antoniou et al., 2013). Real-time RT-PCR gene expression analysis was carried out using a Biorad IQ5 thermocycler as previously described (Filippou et al., 2013b). Relative quantification of gene expression and statistical analysis of all qRT-PCR data (pairwise fixed reallocation randomization test) were performed using the REST software according to Pfaffl et al. (2002). The actin 11 gene was used as a housekeeping reference gene. […]

For experiment [2], the system named is Medicago sativa plants. Nature of the experiment: Real-time RT-PCR gene expression in leaves of drought-stressed plants. The conditions noted are these: FIG. 17; for relative gene expression of genes examined (NR, GST17, Cu/ZnSOD, FeSOD, APX, PIP): after rewatering, vs drought-stressed alone plants; for SOD isoforms (Cu/ZnSOD, FeSOD) relative gene expression: pretreated and stressed vs stressed alone plants. The procedure: (§1) Mature (42 d) Medicago sativa plants were used for the purposes of this study. These were grown in soil medium under controlled, optimal growth conditions and were then subjected to drought stress. Drought was imposed by withholding watering until drought symptoms (loss of turgour, wilting, chlorosis) were observed (6 d after stress imposition). Samples were then re-watered to observe recovery potential after 1 day (7 d). Both NOSH and NOSH-aspirin were applied at 100 μM concentration by foliar spraying at the start of stress imposition. The hybrid donors were diluted in 30% (v/v) methanol. Physiological parameters (stomatal conductance and chlorophyll fluorescence) were measured with a DT-Porometer AP4 (Delta-TDevices, Cambridge, UK) and an OptiSci OS-30p chlorophyll fluorometer (Opti-Sciences, Hudson, N.H., USA) respectively (Filippou et al., 2013). Chlorophyll fluorescence (Fv/Fm) of leaves represents the maximum photochemical efficiency of photosystem II (PSII). Cellular damage was evaluated by lipid peroxidation levels (TBARS content), nitric oxide (NO) content (nitrosative stress) and hydrogen peroxide (H2O2) content (oxidative stress) as previously described (Filippou et al., 2011; Tanou et al., 2012), while osmoprotective capacity was evaluated by proline content (ninhydrin assay) as previously described (Antoniou et al., 2013). Antioxidant enzyme activities (SOD and CAT) were measured as previously described (Filippou et al., 2014). Real-time RT-PCR gene expression analysis was carried out using a Biorad IQ5 thermocycler as previously described (Filippou et al., 2013). Relative quantification of gene expression and statistical analysis of all qRT-PCR data (pairwise fixed reallocation randomization test) were performed using the REST software according to Pfaffl et al. (2002). The actin 11 gene was used as a housekeeping reference gene. All analyses were carried out using three independent biological pools of samples as replicates (with a minimum of fifteen independent plants per pooled sample). The experimental setup is shown schematically in FIG. 8.
Finally, qRT-PCR gene expression analysis was carried out (FIG. 17) for key defense-related genes, including major enzymatic antioxidants (GST17, Cu/ZnSOD, FeSOD, cAPX) linked with ROS scavenging, as well as genes involved in NO biosynthesis (NR). In addition, an aquaporin (PIP) was also examined which is linked with response to water deficit and transport.

For experiment [3], the system named is Medicago sativa plants. In words: Hydrogen peroxide content in leaves of drought-stressed plants. The conditions noted are these: FIG. 14A. As for the experimental part: as §1
Abiotic stress conditions are associated with increased levels of reactive oxygen (ROS) and reactive nitrogen (RNS) species content, which are toxic for the cells. During such conditions, the production of ROS and RNS exceeds the capacity of the antioxidative defense systems to remove them, causing nitro-oxidative stress.

For experiment [4], the system named is Medicago truncatula plants. Nature of the experiment: Real-time RT-PCR gene expression in leaves of drought-stressed plants. As to conditions: pre-treated and stressed vs stressed alone plants; 30% MetOH; FIG. 7.
Experiment [5] has as its system Medicago sativa plants. In words: Macroscopic (phenotypic) observation of drought-stressed plants. The conditions noted are these: for phenotype (vitality, turgor, greening): 100 μM foliar spraying, 30% MetOH, 6 d after stress imposition, vs drought-stressed plants, FIG. 9; for recovery capacity (phenotype): day 7 (6 d drought + 1 d rewatering), vs drought-stressed alone, FIG. 10; for phenotype after second wave of drought stress: day 13, another 6 days without watering, FIG. 11. The procedure:
where cPTIO represents a NO inhibitor, while HXL is a H2S inhibitor. In addition to the previous setup of sampling control and drought-stressed samples, plants were re-watered at 6 d after drought stress imposition and additional sampling was carried out 1 d after rewatering to examine recovery of plants, while a second wave of drought stress was imposed to see if primed plants develop a longer-term, ‘memory’ effect. Plant Material and Stress Conditions
as §1

Setting [6] is: 100 μM, 6 d drought, vs drought-stressed samples.
Setting [7] is: rewatering at 7 d vs respective pretreated, drought-stressed samples at 6 d.

For `O=C(CCCO[N+](=O)[O-])Oc1ccccc1C(=O)Oc1ccc(-c2cc(=S)ss2)cc1` [NOSH-A], the H2O2 levels entry in experiment [1] (30% (v/v) MetOH, vs drought-stress samples, FIG. 5) is recorded as “significantly lower H2O2 levels”. For the same molecule, the H2O2 content result in experiment [1] (70% (v/v) MetOH, drought 9 d, FIG. 4) is “significantly reversed”. Moreover, in the experiment on Medicago sativa plants [2], the “relative gene expression of genes examined (NR, GST17, Cu/ZnSOD, FeSOD, APX, PIP)” value is on record as “general suppression of most genes examined” and the “SOD isoforms (Cu/ZnSOD, FeSOD) relative gene expression” value was “significant transcriptional regulation (induction)”. Further, the H2O2 content result with Medicago sativa plants [3] (setting [6]) was “significantly reversed”. The H2O2 content entry with Medicago sativa plants [3] (setting [7]) is “ameliorated even further”. Besides, in experiment [4], the “FeSOD relative gene expression” value was “significant induction”, the “P5CR relative gene expression” value is given as “significant induction”, the “P5CS relative gene expression” value was “significant induction” and the “cAPX relative gene expression” value is reported as “significant suppression”. In the experiment on Medicago sativa plants [5], the “phenotype (vitality, turgor, greening)” value is “significantly improved vitality, turgor and greening”; the “recovery capacity (phenotype)” value was “notably improved recovery capacity”; the “phenotype after second wave of drought stress” value was “maintained growth and vitality”.

Consider `O=C(CCCO[N+](=O)[O-])Oc1ccc(-c2cc(=S)ss2)cc1` [NOSH], for which, in the experiment with Medicago sativa plants [2], the “relative gene expression of genes examined (NR, GST17, Cu/ZnSOD, FeSOD, APX, PIP)” value is listed as “general suppression of most genes examined” and the “SOD isoforms (Cu/ZnSOD, FeSOD) relative gene expression” value is on record as “significant transcriptional regulation (induction)”. In the experiment on Medicago sativa plants [3] (setting [6]), the H2O2 content result is “significantly reversed”. The H2O2 content result in the experiment on Medicago sativa plants [3] (setting [7]) is “ameliorated even further”. Besides, in the experiment on Medicago sativa plants [5], the “phenotype (vitality, turgor, greening)” value is “significantly improved vitality, turgor and greening”; the “recovery capacity (phenotype)” value is “notably improved recovery capacity”; the “phenotype after second wave of drought stress” value was “maintained growth and vitality”.
